Measurements from US7884077B2, “Methods for the treatment of mood disorders” (The McLean Hospital Corporation, priority 2006, dated 2011).
“Also recorded” adds a separate entry of the source.

Assays:
[1] = target: KOR (Homo sapiens, UniProt P41145); settings: Zhu et al., 1997; cited from earlier work
[2] = tested on: human subjects who have been diagnosed with bipolar disorder and are acutely manic; experiment: Open-label cumulative-dosing clinical trial of pentazocine in acutely manic subjects; assay type: in vivo; settings: for YMRS mean: morning
Description: A trial study was conducted to determine the effect of pentazocine on the mood of human subjects who have been diagnosed with bipolar disorder and are acutely manic. Ten subjects (7 male and 3 female) between the ages of 18 and 65 were enrolled in the study. All subjects were admitted to the hospital with a primary diagnosis of bipolar mania by DSMIV criteria. […] Subjects with a current history of substance abuse or a recent history of opiate dependence were excluded. All subjects were deemed competent to give informed consent by non-study physicians. After complete description of the study to the subjects, written informed consent was obtained.
The current study was undertaken in full compliance with federal requirements and with institutional review board approval. The study was designed as an open-label cumulative-dosing trial.
The three-day study consisted of pre-treatment, treatment, and post-treatment days with subjects rated in the morning on all three days and multiple times on the day of treatment. On the treatment day, an initial 50 mg of pentazocine was given by mouth. A second dose was given two hours following the initial dose. Pentazocine was given as Talwin Nx (Sanofi-Synthlabo), consisting of 50 mg dose pentazocine with 0.5 mg naloxone (naloxone is added to limit the intra-venous abuse potential of this drug but is not absorbed when given by oral administration as used here).
Assessment of manic symptoms by YMRS were made daily at the same time in the morning on all three days of the study. As the YMRS was designed to reflect the past 48 hours, it is not sensitive to acute symptomatic change (IsHak et al, 2002) YMRS and DSMIV criteria were used as the basis for constructing a scale to detect acute changes in manic symptoms (The Mania Acute Change Scale or MACS). […] The MACS scale is available online at www.mcleanhospital.org. The MACS, which includes items from the YMRS and a brief assessment of dysphoria/depression was given along with the YMRS in the morning on all three days of the study. In addition, the MACS was given hourly for 6 hours starting with the first dose of pentazocine. All investigator ratings were performed by investigator Beth Murphy, M. D., Ph.D. A self-rating scale designed to assess manic symptoms and medication side effects was completed by subjects whenever the MACS was given. Staff reports were reviewed, with special note of the duration of sleep and whether any ‘pro re nata’ (PRN) medications were required. Data were analyzed using a repeated measures ANOVA (SPSS 14.0).

[3] = target: mu opiate receptors (Homo sapiens, UniProt P35372); settings: Bidlack et al., 2000; cited from earlier work
Chain of mu opiate receptors (P35372 whole entry): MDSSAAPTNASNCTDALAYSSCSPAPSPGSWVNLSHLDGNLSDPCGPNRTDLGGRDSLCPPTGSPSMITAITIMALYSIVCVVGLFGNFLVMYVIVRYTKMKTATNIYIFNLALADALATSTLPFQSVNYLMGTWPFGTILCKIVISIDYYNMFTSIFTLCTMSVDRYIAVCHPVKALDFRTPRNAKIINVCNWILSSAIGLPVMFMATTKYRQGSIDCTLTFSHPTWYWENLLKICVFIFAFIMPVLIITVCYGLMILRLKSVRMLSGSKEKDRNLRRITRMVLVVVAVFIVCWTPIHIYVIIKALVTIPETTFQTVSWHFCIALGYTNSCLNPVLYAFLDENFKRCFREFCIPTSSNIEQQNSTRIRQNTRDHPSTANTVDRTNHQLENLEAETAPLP

[4] = tested on: sigma receptors; settings: Bidlack et al., 2000; cited from earlier work
[5] = 50 mg by mouth at Hour 0 and Hour 2, hourly ratings
[6] = one hour after first 50 mg oral dose
[7] = second 50 mg oral dose given at hour 2

Chain of KOR (P41145 whole entry): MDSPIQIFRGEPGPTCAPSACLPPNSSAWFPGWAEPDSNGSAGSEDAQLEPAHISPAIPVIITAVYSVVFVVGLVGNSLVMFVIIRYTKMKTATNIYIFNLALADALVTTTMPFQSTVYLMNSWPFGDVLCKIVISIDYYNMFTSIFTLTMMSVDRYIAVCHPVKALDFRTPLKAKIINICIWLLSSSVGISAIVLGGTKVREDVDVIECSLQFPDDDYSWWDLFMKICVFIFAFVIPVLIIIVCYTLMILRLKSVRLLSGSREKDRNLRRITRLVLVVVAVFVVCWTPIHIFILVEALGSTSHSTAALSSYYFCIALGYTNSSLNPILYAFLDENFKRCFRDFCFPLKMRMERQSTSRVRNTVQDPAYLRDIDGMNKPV

**Q.** Which “efficacy at KOR” value [1] does the source give for `CC(C)=CCN1CCC2(C)c3cc(O)ccc3CC1C2C` (centres unmarked) [pentazocine] here?
**A.** partial agonist

**Q.** And the dysphoria ([2]; 50 mg by mouth at Hour 0 and Hour 2)?
**A.** No dysphoria was reported; also recorded: None of the subjects complained of dysphoria

**Q.** What about the “effect on manic symptoms (total MACS score)” value [2, 5] of the same molecule?
**A.** manic symptoms decreased; also recorded: All subjects experienced an improvement in manic symptoms; also recorded: transient but substantial and statistically significant reduction in manic symptoms

**Q.** What about the “effect on psychotic symptoms (clinician rating)” value [2, 5] of the same molecule?
**A.** no significant changes in psychosis; also recorded: No subject experienced exacerbation of psychotic symptoms; also recorded: most subjects experienced a mild improvement in psychotic symptoms

**Q.** And the “sedation (clinician rating, scale of 0-4)” value [2, 5]?
**A.** mild (half-point), nonsignificant, increases in sedation; also recorded: Sedation was low

**Q.** What about the “mean total MACS score” value ([2]; Hour 0 (baseline), before first dose) of the same molecule?
**A.** 20.1

**Q.** What about the “mean total MACS score” value ([2]; hour 2, when second dose was given) of the same molecule?
**A.** 18.6

**Q.** What about the “mean total MACS score” value ([2]; hour 3, one hour after second 50 mg oral dose) of the same molecule?
**A.** 11.0

**Q.** And the “mean change in total manic symptom ratings (MACS) from baseline” value [2, 6]?
**A.** −8.8

**Q.** And the “mean total MACS score” value [2, 6]?
**A.** 11.3

**Q.** What about the “mean change in total manic symptom ratings from baseline (decrease)” value ([2]; one hour after first 50 mg oral dose, MACS, 10 subjects) of the same molecule?
**A.** 44%

**Q.** And the “rebound in symptoms after treatment” value ([2]; post-treatment day)?
**A.** no evidence of a rebound in symptoms after treatment

**Q.** And the YMRS mean ([2]; post-treatment day)?
**A.** 12.7 ± 8.4

**Q.** And the YMRS mean ([2]; pretreatment day)?
**A.** 23.6 ± 8.9

**Q.** And the “fall in mean MACS score between hour 2 and hour 3” value [2, 7]?
**A.** 7.6 points

**Q.** And the “fall in mean total manic symptom ratings (MACS) between hour 2 and hour 3” value [2, 7]?
**A.** 41%

**Q.** What about the YMRS mean ([2]; treatment day) of the same molecule?
**A.** 22.0 ± 6.9

**Q.** What about the “tolerability / side effects” value ([2]; two 50 mg oral doses two hours apart) of the same molecule?
**A.** well-tolerated; also recorded: No subject experienced significant side effects; also recorded: No adverse effects, including psychotomimetic effects, were observed or reported

**Q.** What about the “affinity and effects at mu opiate receptors relative to KOR” value [3] of the same molecule?
**A.** lower affinity and weaker effects

**Q.** What about the “affinity and effects at sigma receptors relative to KOR” value [4] of the same molecule?
**A.** lower affinity and weaker effects
